Laboratory results published in patent EP2265599B1, “CRYSTAL FORM OF PHENYLAMINOPYRIMIDINE DERIVATIVE” (Natco Pharma Limited, priority 2008, dated 2009).
Entries after “also recorded” stand apart in the source; their conditions may differ. Where a name gives a salt, the structure may show the parent alone.

Assays:
[1] = Thermodynamic stability of the crystal forms at room temperature; format: physicochemical
[2] = Heat stability of Form-III crystal form (heated in oil bath, examined by XRPD); format: physicochemical; settings: 6 hours, form-I and Form-II below the detection level
Text: Pure Form-III crystal form (1 gm) prepared by the present process was placed in a boiling tube and heated gradually in oil bath. Then the substance was examined by XRPD.

[3] = Stability of Form-III crystal form under accelerated stress conditions in bulk and formulated capsule; format: physicochemical
Text: Table 5 - Stability of Form-III crystal form in bulk and formulated capsule

[4] = test system: 4910 human glioma xenograft cells; test: Glioma radiation study, intracranially implanted 4910 cells; format: in vivo, Nude mice; settings: terminated at day 40
Procedure: Nude mice were intracranially implanted with 4910 human glioma xenograft cells (1x10^6 cells). Ten days after implantation mice were treated with AN019, AN024 or temozolomide with or without radiation (5Gy/week). The experiment was terminated at day 40 post implantation.

[5] = test system: K562 luc human leukemia cells; test: Low dose oral treatment of nude mice implanted with K562 luc cells (luciferase expression); format: in vivo; settings: oral administration
Procedure: Nude mice (nu/nu) were implanted with K562 cells (1x106) normal/luc via tail vein. Five mice were used per group and divided into 24 groups + 2 control. All groups were implanted with K562 normal/luc cells. Of the 24 groups, 12 were used for luciferase studies whereas the other 12 were used for blood smear count studies.
Drugs were administered by oral gavage (2% gum acacia and 2% SLS in an aqueous suspension).

[6] = test system: K562 luciferase expressing cells; test: Leukemic survival study, K562 luciferase expressing cells implanted intraperitoneally; format: in vivo, nude mice
Text: K562 luciferase expressing cells were implanted intraperitoneally into nude mice; the mice were scanned using the xenogeny IVIS image station after ip injections of luciferin does determine implantations. Drug treatment was started as in previous studies day 15 after implantation. The animals were given treatment till day 42, after which drug treatment was stopped and survival of the animals determined as per the animal care regulations. […] Drug treatment was withdrawn on day 42 post implantation and survival of animals determined.

Cc1ccc(NC(=O)c2cc(C(F)(F)F)cc(C(F)(F)F)c2)cc1Nc1nccc(-c2cccnc2)n1 [Form-I, (3,5-bis trifluoromethyl)-N-[4-methyl-3-(4-pyridin-3yl-pyrimidin-2ylamino)-phenyl]-benzamide]
stability of crystal form at room temperature [1]: metastable at room temperature

Cc1ccc(NC(=O)c2cc(C(F)(F)F)cc(C(F)(F)F)c2)cc1Nc1nccc(-c2cccnc2)n1 [Form-II, (3,5-bis trifluoromethyl)-N-[4-methyl-3-(4-pyridin-3yl-pyrimidin-2ylamino)-phenyl]-benzamide]
stability of crystal form at room temperature [1]: metastable at room temperature

Cc1ccc(NC(=O)c2cc(C(F)(F)F)cc(C(F)(F)F)c2)cc1Nc1nccc(-c2cccnc2)n1 [Form-III, (3,5-bis trifluoromethyl)-N-[4-methyl-3-(4-pyridin-3yl-pyrimidin-2ylamino)-phenyl]-benzamide]
Polymorph form detected after heating ([2]; 110°C): Form-III | Polymorph form detected after heating ([2]; 120°C): Form-III | Polymorph form detected after heating ([2]; 130°C): non-metastable and stable when heated at 130 °C for 6 hours; also recorded: stable to heat even at 130 °C for 6 hours; also recorded: Form-III | stability of crystal form at room temperature [1]: thermodynamically stable form at room temperature | Polymorph content of bulk compound of formula I, Polymorph form detected ([3]; 0 Month at 40±2°C / 75 ±5% RH): Form-III | Polymorph content of bulk compound of formula I, Polymorph form detected ([3]; 1 Month at 40±2°C / 75 ±5% RH): Form-III | Polymorph content of bulk compound of formula I, Polymorph form detected ([3]; 2 Months at 40±2°C / 75 ±5% RH): Form-III | Polymorph content of bulk compound of formula I, Polymorph form detected ([3]; 3 Months at 40±2°C / 75 ±5% RH): Form-III | Polymorph content of bulk compound of formula I, Polymorph form detected ([3]; 6 Months at 40±2°C / 75 ±5% RH): Form-III | Polymorph content of Formula I in formulated capsule, Polymorph form detected ([3]; 0 Month at 40±2°C / 75 ±5% RH): Form-III | Polymorph content of Formula I in formulated capsule, Polymorph form detected ([3]; 1 Month at 40±2°C / 75 ±5% RH): Form-III | Polymorph content of Formula I in formulated capsule, Polymorph form detected ([3]; 2 Months at 40±2°C / 75 ±5% RH): Form-III | Polymorph content of Formula I in formulated capsule, Polymorph form detected ([3]; 3 Months at 40±2°C / 75 ±5% RH): Form-III | Polymorph content of Formula I in formulated capsule, Polymorph form detected ([3]; 6 Months at 40±2°C / 75 ±5% RH): Form-III

Cn1nnc2c(C(N)=O)ncn2c1=O [Temozolomide, reference compound]
animals cured / no observable intracranial tumor ([4]; with radiation (5Gy/week)): 2 of 10 animals | animals cured / complete absence of intracranial tumours ([4]; without radiation, treatment from ten days after implantation): 3 of 10 animals

Cc1ccc(NC(=O)c2ccc(CN3CCN(C)CC3)cc2)cc1Nc1nccc(-c2cccnc2)n1 [Imatinib, Imatinib mesylate, reference compound]
luciferase expression ([5]; 10mg/kg): did show a retardation of luciferase expression | luciferase expression ([5]; 20mg/kg): did show a retardation of luciferase expression | leukemic symptoms after treatment withdrawal ([6]; drug treatment withdrawn on day 42): showed reoccurrences of leukemic symptoms after treatment withdrawal | Blast cell count from blood smears after withdrawal of drug treatment ([6]; drug treatment withdrawn on day 42 (Fig. 21)): found to be ineffective | mortality ([6]; treatment from day 15 till day 42, then withdrawn, AN024 death determined to be other than leukemia): showed mortality on day 55, 56, 57 and 58
